Data: publication PMC7253177, “Gain of channel function and modified gating properties in TRPM3 mutants causing intellectual disability and epilepsy” (eLife, 2020)

Molecular target: T1, TRPM3 V990M mutant (Homo sapiens, UniProt Q9HCF6, V1015M)
T1 construct: expressed in transfected cells; host or cells: HEK293T
T1 sequence (Q9HCF6 1-1325 isoform Q9HCF6-10 V990M): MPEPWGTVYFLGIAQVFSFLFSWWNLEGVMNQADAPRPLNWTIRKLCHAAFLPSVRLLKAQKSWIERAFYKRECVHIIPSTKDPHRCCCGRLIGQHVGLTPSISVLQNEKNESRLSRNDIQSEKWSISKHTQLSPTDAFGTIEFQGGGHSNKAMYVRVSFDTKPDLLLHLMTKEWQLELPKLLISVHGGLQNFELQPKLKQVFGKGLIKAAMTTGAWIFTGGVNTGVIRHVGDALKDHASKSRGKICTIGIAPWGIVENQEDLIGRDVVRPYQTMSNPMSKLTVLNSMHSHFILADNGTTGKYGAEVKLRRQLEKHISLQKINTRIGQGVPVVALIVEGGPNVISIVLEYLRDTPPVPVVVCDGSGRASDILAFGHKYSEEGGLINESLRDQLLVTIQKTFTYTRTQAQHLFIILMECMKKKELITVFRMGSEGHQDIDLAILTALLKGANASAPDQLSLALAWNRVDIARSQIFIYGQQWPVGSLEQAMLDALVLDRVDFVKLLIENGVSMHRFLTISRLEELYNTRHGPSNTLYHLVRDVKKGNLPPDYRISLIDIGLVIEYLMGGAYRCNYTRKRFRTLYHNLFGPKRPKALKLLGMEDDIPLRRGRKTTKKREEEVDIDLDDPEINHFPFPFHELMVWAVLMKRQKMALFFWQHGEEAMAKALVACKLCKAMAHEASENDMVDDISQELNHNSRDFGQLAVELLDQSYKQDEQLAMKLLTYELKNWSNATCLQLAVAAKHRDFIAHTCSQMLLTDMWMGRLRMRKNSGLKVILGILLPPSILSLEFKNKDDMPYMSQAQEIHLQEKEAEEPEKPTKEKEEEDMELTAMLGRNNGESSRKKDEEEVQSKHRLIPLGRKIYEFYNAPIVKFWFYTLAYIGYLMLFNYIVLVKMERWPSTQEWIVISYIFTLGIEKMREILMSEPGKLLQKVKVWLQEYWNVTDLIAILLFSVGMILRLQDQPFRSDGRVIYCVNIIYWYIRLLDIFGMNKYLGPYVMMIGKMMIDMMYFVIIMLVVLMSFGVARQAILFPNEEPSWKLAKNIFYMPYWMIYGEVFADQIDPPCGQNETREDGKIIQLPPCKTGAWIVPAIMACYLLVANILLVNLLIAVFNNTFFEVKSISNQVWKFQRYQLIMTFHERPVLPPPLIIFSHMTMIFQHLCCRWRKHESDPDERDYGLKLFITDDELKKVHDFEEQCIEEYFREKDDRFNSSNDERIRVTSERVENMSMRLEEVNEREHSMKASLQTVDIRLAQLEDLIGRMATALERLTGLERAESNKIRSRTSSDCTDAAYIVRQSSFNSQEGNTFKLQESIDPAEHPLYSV
Assay: Fura-2-based calcium imaging, HEK293T cells transfected with V990M hTRPM3
Format: cell-based
Experimental: HEK293T cells ([Graham et al., 1977]) were cultured as described previously ([Vriens et al., 2007]) and used up in passage number 14. HEK293T cells were tested for the lack of mycoplasma and transiently transfected with 2 µg of DNA using TransIT transfection reagent (Mirus) 36–48 hr before the measurements. In case of co-cultures a ratio of 1:1 between hTRPM3-YFP WT and mutants-YFP DNA was used.
All mutants were obtained by the standard PCR overlap extension method using hTRPM3 directly linked to YFP from pCAGGS/IRES-GFP vector ([Vriens et al., 2007]). Accuracy of all mutant sequences was verified by sequencing of the entire DNA constructs.
Changes in intracellular calcium concentration were monitored using ratiometric Fura-2-based fluorimetry. Cells were loaded with 2 µM Fura-2-acetoxymethyl ester (Alexis Biochemicals) for 30 min at 37°C. Fluorescence was measured during alternating illumination at 340 and 380 nm using Eclipse Ti (Nikon) fluorescence microscopy system, and absolute calcium concentration was calculated from the ratio of the fluorescence signals at these two wavelengths (R = F340/F380) as [Ca^2+]=Km × (R-Rmin)/(Rmax-R), where Km, Rmin and Rmax were estimated from in vitro calibration experiments with known calcium concentrations. The bath solution contained (in mM) 138 NaCl, 5.4 KCl, 2 CaCl2, 2 MgCl2, 10 glucose, and 10 HEPES, pH 7.4. […]

Molecule | Effect on basal [Ca2+]i (primidone 100 µM, isosakuranetin 50 µM, did not fully return to WT level) | PS concentration giving robust calcium responses (as low as)
CCC1(c2ccccc2)C(=O)NCNC1=O [primidone] | reduced [Ca^2+]i | 
pregnenolone sulfate [PS] |  | 100 nM
